According to patent US20240316088A1, “Solid composition suitable as a nutritional composition or supplement for animals that suffer from brain related disorders, decline or diseases” (N.V. Nutricia, priority 2022, published 2024):

Assay: Hygroscopicity as observed during formulation and processing
Type: physicochemical

C[N+](C)(C)CCO.O=C([O-])C(O)C(O)C(=O)O (centres unmarked) [Choline bitartrate]
hygroscopicity (in words): much reduced hygroscopicity

C[N+](C)(C)CCO.[Cl-] [Choline chloride]
hygroscopicity (in words): very hygroscopic
